# Source: PubChem BioAssay (NCI)
#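 Assay format: 96-well plates, 48-hour exposure. Abbreviation: GI50, concentration required for 50% inhibition of growth. Definition used: TGI = concentration required for complete inhibition of growth.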
# What was measured:
# Assay in all cases: NCI tumour cell line growth inhibition, 48 h
# [1] = test system: MCF7 breast
# [2] = test system: NCI-H522 lung
# [3] = test system: UACC-62 melanoma
# [4] = test system: T-47D breast
# [5] = test system: U251 CNS
# [6] = test system: ACHN renal
# [7] = test system: SN12C renal
# [8] = test system: NCI-H460 lung
# [9] = test system: SK-MEL-28 melanoma
# [10] = test system: SF-539 CNS
# [11] = test system: CAKI-1 renal
# [12] = test system: COLO 205 colon
# [13] = test system: BT-549 breast
# [14] = test system: SW-620 colon
# [15] = test system: HL-60(TB) leukemia
# [16] = test system: SK-OV-3 ovarian
# [17] = test system: SK-MEL-2 melanoma
# [18] = test system: DU-145 prostate
# [19] = test system: SF-268 CNS
# [20] = test system: HOP-92 NSCLC
# [21] = test system: IGROV1 ovarian
# [22] = test system: NCI/ADR-RES ovarian
# [23] = test system: OVCAR-3 ovarian
# [24] = test system: TK-10 renal
# [25] = test system: HCT-15 colon
# [26] = test system: RPMI-8226 leukemia
# [27] = test system: KM12 colon
# [28] = test system: EKVX NSCLC
# [29] = test system: NCI-H226 lung
# [30] = test system: MOLT-4 leukemia
# [31] = test system: K-562 leukemia
# [32] = test system: M14 melanoma
# [33] = test system: PC-3 prostate
# [34] = test system: UO-31 renal
# [35] = test system: SNB-75 CNS
# [36] = test system: A498 renal
# [37] = test system: OVCAR-8 ovarian
# [38] = test system: LOX IMVI melanoma
# [39] = test system: SNB-19 CNS
# [40] = test system: RXF 393 renal
# [41] = test system: CCRF-CEM leukemia
# [42] = test system: OVCAR-5 ovarian
# [43] = test system: UACC-257 melanoma
# [44] = test system: A549 NSCLC
# [45] = test system: MDA-MB-435
# [46] = test system: HCC-2998 colon
# [47] = test system: HS 578T breast
# [48] = test system: SK-MEL-5 melanoma
# [49] = test system: SF-295 CNS
# [50] = test system: HT29 colon
# [51] = test system: HCT-116 colon
# [52] = test system: MDA-MB-231 breast
# [53] = test system: OVCAR-4 ovarian
# [54] = test system: SR leukemia
# [55] = test system: MALME-3M melanoma
# [56] = test system: HOP-62 NSCLC
# [57] = test system: 786-0 renal
# [58] = test system: NCI-H23 lung
# [59] = test system: MDA-N
smiles,measurement,setting,value
C=C1C(=O)O[C@H]2[C@H]1CC/C(COC(=O)/C=C\C(=O)NCc1ccc(Cn3c(=O)sn(CCCC)c3=O)cc1)=C\CC[C@@]1(C)O[C@@H]21,GI50,[1],365 nM
same,TGI,[1],2030 nM
same,GI50,[2],315 nM
same,TGI,[2],1270 nM
same,GI50,[3],1200 nM
same,TGI,[3],2530 nM
same,GI50,[4],1270 nM
same,TGI,[4],4220 nM
same,GI50,[5],1430 nM
same,TGI,[5],3200 nM
same,GI50,[6],299 nM
same,TGI,[6],994 nM
same,GI50,[7],865 nM
same,TGI,[7],2250 nM
same,GI50,[8],1270 nM
same,TGI,[8],2730 nM
same,GI50,[9],1410 nM
same,TGI,[9],2740 nM
same,GI50,[10],1180 nM
same,TGI,[10],2420 nM
same,GI50,[11],328 nM
same,TGI,[11],1480 nM
same,GI50,[12],581 nM
same,TGI,[12],2370 nM
same,GI50,[13],909 nM
same,TGI,[13],2230 nM
same,GI50,[14],201 nM
same,TGI,[14],443 nM
same,GI50,[15],396 nM
same,TGI,[15],1770 nM
same,GI50,[16],3330 nM
same,TGI,[16],8550 nM
same,GI50,[17],1670 nM
same,TGI,[17],3310 nM
same,GI50,[18],854 nM
same,TGI,[18],2160 nM
same,GI50,[19],1390 nM
same,TGI,[19],2780 nM
same,GI50,[20],655 nM
same,TGI,[20],2040 nM
same,GI50,[21],556 nM
same,TGI,[21],1730 nM
same,GI50,[22],1510 nM
same,TGI,[22],6130 nM
same,GI50,[23],229 nM
same,TGI,[23],589 nM
same,GI50,[24],610 nM
same,TGI,[24],1780 nM
same,GI50,[25],202 nM
same,TGI,[25],467 nM
same,GI50,[26],274 nM
same,TGI,[26],949 nM
same,GI50,[27],1670 nM
same,TGI,[27],3800 nM
same,GI50,[28],1480 nM
same,TGI,[28],2850 nM
same,GI50,[29],1580 nM
same,TGI,[29],3390 nM
same,GI50,[30],340 nM
same,TGI,[30],1520 nM
same,GI50,[31],316 nM
same,TGI,[31],4820 nM
same,GI50,[32],678 nM
same,TGI,[32],2060 nM
same,GI50,[33],868 nM
same,TGI,[33],2340 nM
same,GI50,[34],387 nM
same,TGI,[34],1610 nM
same,GI50,[35],697 nM
same,TGI,[35],2190 nM
same,GI50,[36],1180 nM
same,TGI,[36],2440 nM
same,GI50,[37],828 nM
same,TGI,[37],3320 nM
same,GI50,[38],179 nM
same,TGI,[38],379 nM
same,GI50,[39],1530 nM
same,TGI,[39],2930 nM
same,GI50,[40],547 nM
same,TGI,[40],1790 nM
same,GI50,[41],275 nM
same,TGI,[41],1630 nM
same,GI50,[42],1330 nM
same,TGI,[42],2750 nM
same,GI50,[43],1380 nM
same,TGI,[43],2930 nM
same,GI50,[44],1560 nM
same,TGI,[44],4160 nM
same,GI50,[45],513 nM
same,TGI,[45],1770 nM
same,GI50,[46],1640 nM
same,TGI,[46],3190 nM
same,GI50,[47],1300 nM
same,TGI,[47],3320 nM
same,GI50,[48],1400 nM
same,TGI,[48],2710 nM
same,GI50,[49],1730 nM
same,TGI,[49],3240 nM
same,GI50,[50],472 nM
same,TGI,[50],2070 nM
same,GI50,[51],176 nM
same,TGI,[51],491 nM
same,GI50,[52],992 nM
same,TGI,[52],2340 nM
same,GI50,[53],626 nM
same,TGI,[53],1870 nM
same,GI50,[54],288 nM
same,TGI,[54],> 100000 nM
same,GI50,[55],1350 nM
same,TGI,[55],2710 nM
same,GI50,[56],1630 nM
same,TGI,[56],3460 nM
same,GI50,[57],1200 nM
same,TGI,[57],2560 nM
same,GI50,[58],1400 nM
same,TGI,[58],2890 nM
COC(=O)C1=C(C(=O)Nc2cccnc2Cl)N(c2ccc(OC)cc2[N+](=O)[O-])C(c2ccc(C)cc2)=CC1c1ccc(OC)cc1OC (centres undefined),TGI,[1],22400 nM
same,TGI,[2],26300 nM
same,TGI,[3],> 100000 nM
same,TGI,[4],88300 nM
same,TGI,[5],40300 nM
same,TGI,[6],> 81600 nM
same,TGI,[7],35000 nM
same,TGI,[8],> 79300 nM
same,TGI,[9],> 100000 nM
same,TGI,[10],16700 nM
same,TGI,[11],> 100000 nM
same,TGI,[12],31900 nM
same,TGI,[13],> 100000 nM
same,TGI,[14],22700 nM
same,TGI,[15],52500 nM
same,TGI,[16],62900 nM
same,TGI,[17],65000 nM
same,TGI,[18],> 90100 nM
same,TGI,[19],78500 nM
same,TGI,[20],> 100000 nM
same,TGI,[21],33700 nM
same,TGI,[22],47500 nM
same,TGI,[23],43700 nM
same,TGI,[24],> 64200 nM
same,TGI,[25],49800 nM
same,TGI,[26],21500 nM
same,TGI,[27],16300 nM
same,TGI,[28],> 81900 nM
same,TGI,[29],38100 nM
same,TGI,[30],49300 nM
same,TGI,[31],> 100000 nM
same,TGI,[32],> 72500 nM
same,TGI,[33],> 100000 nM
same,TGI,[34],> 76200 nM
same,TGI,[35],72300 nM
same,TGI,[36],50600 nM
same,TGI,[37],31100 nM
same,TGI,[38],17000 nM
same,TGI,[39],> 88600 nM
same,TGI,[40],22200 nM
same,TGI,[41],> 36800 nM
same,TGI,[42],> 84900 nM
same,TGI,[43],> 100000 nM
same,TGI,[44],40900 nM
same,TGI,[45],> 100000 nM
same,TGI,[46],27800 nM
same,TGI,[47],67400 nM
same,TGI,[48],> 73300 nM
same,TGI,[49],> 100000 nM
same,TGI,[50],47900 nM
same,TGI,[51],98700 nM
same,TGI,[52],62100 nM
same,TGI,[53],> 100000 nM
same,TGI,[54],21600 nM
same,TGI,[55],53300 nM
same,TGI,[56],68000 nM
same,TGI,[57],> 87700 nM
same,TGI,[58],> 85000 nM
COC1=CC2C(c3cc4ccccc4n3S(=O)(=O)c3ccccc3)CC1CN2C(=O)OCc1ccccc1 (centres undefined),TGI,[1],> 100000 nM
same,TGI,[2],52900 nM
same,TGI,[3],> 100000 nM
same,TGI,[5],> 100000 nM
same,TGI,[6],> 100000 nM
same,TGI,[7],> 100000 nM
same,TGI,[8],> 100000 nM
same,TGI,[59],> 100000 nM
same,TGI,[11],> 100000 nM
same,TGI,[12],31200 nM
same,TGI,[13],75100 nM
same,TGI,[14],> 100000 nM
same,TGI,[15],41900 nM
same,TGI,[16],98100 nM
same,TGI,[17],54200 nM
same,TGI,[18],> 100000 nM
same,TGI,[21],> 100000 nM
same,TGI,[22],> 100000 nM
same,TGI,[23],> 100000 nM
same,TGI,[24],> 100000 nM
same,TGI,[25],> 100000 nM
same,TGI,[26],44600 nM
same,TGI,[27],> 100000 nM
same,TGI,[28],82200 nM
same,TGI,[29],> 100000 nM
same,TGI,[31],76500 nM
same,TGI,[32],51200 nM
same,TGI,[33],> 100000 nM
same,TGI,[34],> 100000 nM
same,TGI,[35],33700 nM
same,TGI,[37],> 100000 nM
same,TGI,[38],57700 nM
same,TGI,[40],69200 nM
same,TGI,[41],> 100000 nM
same,TGI,[42],45200 nM
same,TGI,[43],> 100000 nM
same,TGI,[44],> 100000 nM
same,TGI,[45],75900 nM
same,TGI,[46],> 100000 nM
same,TGI,[47],> 100000 nM
same,TGI,[48],58900 nM
same,TGI,[49],> 100000 nM
same,TGI,[50],65100 nM
same,TGI,[51],> 100000 nM
same,TGI,[52],58700 nM
same,TGI,[53],> 100000 nM
same,TGI,[55],61000 nM
same,TGI,[56],> 100000 nM
same,TGI,[57],> 100000 nM
same,TGI,[58],> 100000 nM
